Like-named read-outs stand apart in the source and are kept apart here. Each block holds one compound with its values, some of them ahead of it.
Assays:
[1] = read-out: Human plasma Cmax; total plasma Cmax.tot, median of 9 literature references; cited from earlier work
[2] = system: HepG2 C3A spheroid, BSEP, Glu/Gal in HepG2 cells, bioactivation; settings: Bayesian modeling; ref Williams et al. 2019; cited from earlier work
[3] = Plasma free fraction (fu) and unbound Cmax (Cmax,u); type: in vitro ADME, human; settings: unbound plasma Cmax
[4] = cited from earlier work
HepaRG spheroids = test: Combined HCI (HCS) and cellular ATP 3D assay in HepaRG spheroids; settings: for HepaRG <25x Avg Cmax ATP / HepaRG <100x Avg Cmaxu ATP: ATP endpoint; for HepaRG <25x Avg Cmax ATP / HepaRG <25x Avg Cmax HCS / HepaRG <25x Avg Cmax All: cut-off <25x Avg Cmax; for HepaRG <100x Avg Cmaxu ATP / HepaRG <100x Avg Cmaxu HCS / HepaRG <100x Avg Cmaxu All: cut-off <100x Avg Cmaxu; for HepaRG <25x Avg Cmax HCS / HepaRG <100x Avg Cmaxu HCS: HCS endpoints; for HepaRG <25x Avg Cmax All: all endpoints (ATP and HCS); for HepaRG Cmax max All / HepaRG Cmax min All / HepaRG <10 uM All / HepaRG <100x Avg Cmaxu All: all endpoints; for HepaRG Cmax max All: Cmax max used; for HepaRG Cmax min All: Cmax min used; for HepaRG <10 uM All: cut-off <10 uM; for AC50 / minimal effective concentration: Homo sapiens; for HepaRG <25x Avg Cmax ATP / HepaRG <100x Avg Cmaxu ATP / HepaRG <25x Avg Cmax HCS / HepaRG <100x Avg Cmaxu HCS / HepaRG <25x Avg Cmax All / HepaRG Cmax max All / HepaRG Cmax min All / HepaRG <10 uM All / HepaRG <100x Avg Cmaxu All / AC50 / minimal effective concentration: HepaRG; for DILI prediction HepaRG spheroids (HCS-MEC): Microtissue model structural based (HCI), combined HCS and ATP, MEC < 25 × Cmax.tot cut-off
hLiMTs [5] = test: Combined HCI (HCS) and cellular ATP 3D assay in hLiMTs; settings: for minimal effective concentration / AC50: Homo sapiens; for DILI prediction hLiMTs (HCS-MEC): Microtissue model structural based (HCI), combined HCS and ATP, MEC < 25 × Cmax.tot cut-off; for hLiMTs <25x Avg Cmax ATP / hLiMTs <100x Avg Cmaxu ATP: ATP endpoint; for hLiMTs <25x Avg Cmax ATP / hLiMTs <25x Avg Cmax HCS / hLiMTs <25x Avg Cmax All: cut-off <25x Avg Cmax; for hLiMTs <100x Avg Cmaxu ATP / hLiMTs <100x Avg Cmaxu HCS / hLiMTs <100x Avg Cmaxu All: cut-off <100x Avg Cmaxu; for hLiMTs <25x Avg Cmax HCS / hLiMTs <100x Avg Cmaxu HCS: HCS endpoints; for hLiMTs <25x Avg Cmax All: all endpoints (ATP and HCS); for hLiMTs Cmax max All / hLiMTs Cmax min All / hLiMTs <10 uM All / hLiMTs <100x Avg Cmaxu All: all endpoints; for hLiMTs Cmax max All: Cmax max used; for hLiMTs Cmax min All: Cmax min used; for hLiMTs <10 uM All: cut-off <10 uM
[6] = plasma free fraction; cited from earlier work
[7] = cited from earlier work; remark: listed apart in the source
OATP1B1 = settings: known substrates; cited from earlier work
[8] = system: THLE or HepG2 cells, isolated mitochondria, BSEP; settings: cited from earlier work
hLiMTs [9] = settings: cited from earlier work
[10] = system: primary human hepatocytes, NIH3T3 fibroblasts, BSEP, CYP3A4; settings: cited from earlier work; for DILI in vitro assay prediction, Schadt (2015): BSEP & Metabolism based, ref Schadt et al. 2015
HepG2 cells [11] = settings: cited from earlier work
PHH [12] = settings: In vitro Assay; ref Albrecht 2019; cited from earlier work
[13] = system: isolated mouse liver mitochondria; settings: In vitro Assay; ref Porceddu 2012; cited from earlier work
HepG2 cells [14] = settings: cited from earlier work; remark: listed apart in the source
PHH spheroids = settings: cited from earlier work
RMPCC's = settings: In vitro Assay; ref Khetani 2012; cited from earlier work
PHH 3D spheroids = system: PHH 3D spheroids; design: method as in Bell et al. 2018; settings: 14-day exposure, three donors, ref Bell et al. 2018; cited from earlier work
human hepatocytes = settings: cited from earlier work
[15] = system: THLE-Null and THLE-3A4 cells; settings: In vitro Assay; ref Gustafsson 2014; cited from earlier work
HepG2 = system: HepG2; design: method as in Albrecht 2019; settings: In vitro Assay; ref Albrecht 2019; cited from earlier work
[16] = in vivo; cited from earlier work
hu-MPCC = settings: In vitro Assay; ref Khetani 2012; cited from earlier work
PHH [17] = settings: cited from earlier work
HepG2 cells [18] = settings: cited from earlier work; remark: listed apart in the source
[19] = HCS endpoints only, 25 × Cmax.tot cut-off
[20] = Modeled in vitro assays (cytotoxicity, mitochondrial dysfunction, BSEP), ref Aleo et al. 2019
[21] = In vitro Assay, ref Proctor 2017
[22] = In vitro Assay, ref Schadt 2015

Human plasma Cmax,u [3]: 0.126 µM
HepaRG <25x Avg Cmax ATP (HepaRG spheroids): -ve
HepaRG <100x Avg Cmaxu ATP (HepaRG spheroids): -ve
HepaRG <25x Avg Cmax HCS (HepaRG spheroids): +ve
HepaRG <100x Avg Cmaxu HCS (HepaRG spheroids): +ve (<100x Avg Cmaxu)
HepaRG <25x Avg Cmax All (HepaRG spheroids): +ve
HepaRG Cmax max All (HepaRG spheroids): +ve
HepaRG Cmax min All (HepaRG spheroids): +ve
HepaRG <10 uM All (HepaRG spheroids): +ve (<10 uM)
HepaRG <100x Avg Cmaxu All (HepaRG spheroids): +ve (<100x Avg Cmaxu)
hLiMTs <25x Avg Cmax ATP (hLiMTs [5]): -ve
hLiMTs <100x Avg Cmaxu ATP (hLiMTs [5]): -ve
hLiMTs <25x Avg Cmax HCS (hLiMTs [5]): +ve
hLiMTs <100x Avg Cmaxu HCS (hLiMTs [5]): -ve
hLiMTs <25x Avg Cmax All (hLiMTs [5]): +ve
hLiMTs Cmax max All (hLiMTs [5]): +ve
hLiMTs Cmax min All (hLiMTs [5]): +ve
hLiMTs <10 uM All (hLiMTs [5]): -ve
hLiMTs <100x Avg Cmaxu All (hLiMTs [5]): -ve
Structure (SMILES): Cc1cc2c(cc1CC(=O)c1sccc1S(=O)(=O)Nc1onc(C)c1Cl)OCO2 [sitaxsentan]
Cmax [1]: 25.3 µM
Bayesian Machine Learning DILI prediction, Williams (2019) [2]: +VE
DILI severity category (Chen et al. [2016]) ([4]; LTKB DILIrank category, ref Chen et al. 2016): Most
DILI severity category (Chen 2016) ([4]; human DILI classification, LTKB DILIrank, ref Chen et al. 2016): Most
DILI severity category ([4]; human DILI severity, ref Chen et al.): Most
DILI prediction HepaRG spheroids, HCI alone (HepaRG spheroids; [19]): positive
AC50 (HepaRG spheroids; read-out: HCS endpoint AC50): 9.74 µM
minimal effective concentration (HepaRG spheroids; read-out: HCS endpoint MEC): 8.53 µM
DILI prediction HepaRG spheroids (HCS-MEC) (HepaRG spheroids): +VE (MEC < 25 × Cmax.tot cut-off)
DILI prediction hLiMTs, HCI alone (hLiMTs [5]; [19]): detection
minimal effective concentration (hLiMTs [5]; read-out: HCS endpoint MEC): 130 µM
DILI prediction hLiMTs (HCS-MEC) (hLiMTs [5]): +VE (MEC < 25 × Cmax.tot cut-off)
DILI prediction hLiMTs, ATP alone (hLiMTs [5]; cellular ATP only, 25 × Cmax.tot cut-off): unpredicted
fu [6]: 0.005
Assigned DILI category ([7]; Chen et al. 2016 or literature alignment, ref Chen et al. 2016): 3
substrate for hepatic uptake transporter OATP1B1 (OATP1B1): known substrates
Partition Hybrid HRM Score ≥4, Aleo (2019) [8, 20]: +VE (Partition Hybrid HRM Score ≥4)
Partition Hybrid HRM Score ≥8, Aleo (2019) [8, 20]: +VE (Partition Hybrid HRM Score ≥8)
Rule of Two hybrid HRM Score ≥3, Aleo (2019) [8, 20]: +VE (Rule of Two hybrid HRM Score ≥3)
Rule of Two hybrid HRM Score ≥8, Aleo (2019) [8, 20]: +VE (Rule of Two hybrid HRM Score ≥8)
hLiMTs/100xCmax, Proctor (2017) (hLiMTs [9]; hLiMTs, ATP, IC50 < 100 × Cmax.tot, ref Proctor et al. 2017): +VE (IC50 < 100 × Cmax.tot)
DILI in vitro assay prediction, Schadt (2015) [10]: +VE

Human plasma Cmax,u [3]: 0.101 µM
HepaRG <25x Avg Cmax ATP (HepaRG spheroids): +ve
HepaRG <100x Avg Cmaxu ATP (HepaRG spheroids): -ve
HepaRG <25x Avg Cmax HCS (HepaRG spheroids): +ve
HepaRG <100x Avg Cmaxu HCS (HepaRG spheroids): -ve
HepaRG <25x Avg Cmax All (HepaRG spheroids): +ve
HepaRG Cmax max All (HepaRG spheroids): +ve
HepaRG Cmax min All (HepaRG spheroids): +ve
HepaRG <10 uM All (HepaRG spheroids): -ve
HepaRG <100x Avg Cmaxu All (HepaRG spheroids): -ve
hLiMTs <25x Avg Cmax ATP (hLiMTs [5]): +ve
hLiMTs <100x Avg Cmaxu ATP (hLiMTs [5]): -ve
hLiMTs <25x Avg Cmax HCS (hLiMTs [5]): +ve
hLiMTs <100x Avg Cmaxu HCS (hLiMTs [5]): -ve
hLiMTs <25x Avg Cmax All (hLiMTs [5]): +ve
hLiMTs Cmax max All (hLiMTs [5]): +ve
hLiMTs Cmax min All (hLiMTs [5]): +ve
hLiMTs <10 uM All (hLiMTs [5]): -ve
hLiMTs <100x Avg Cmaxu All (hLiMTs [5]): -ve
Structure (SMILES): O=C(O)Cc1ccccc1Nc1c(Cl)cccc1Cl [diclofenac]
Structural based (HCI) (HepG2 cells [11]; In vitro Assay, ref Persson 2013): -VE
Cluser analysis (HepG2 cells [11]): -VE
DILI in vitro assay prediction, Persson (2013) (HepG2 cells [11]): -VE
Cytotoxicity PHH 48 hrs (PHH [12]): +VE
in vitro data EC2<=1x Cmax [13]: +VE
Cmax [1]: 10.1 µM
Structural based (HCI) (HepG2 cells [14]; In vitro Assay, ref O'Brien 2006): +VE
DILI in vitro assay prediction, O'Brien (2006) (HepG2 cells [14]): +VE (key: +VE: lowest HCI endpoint IC50 (or in the absence of dose–response < 100 µM) < 30 × total human plasma exposure levels (Cmax.tot))
hLiMTs ATP <20 x Cmax (PHH spheroids; In vitro Assay, ref Vorrink 2018): +VE (IC20 < 20 × Cmax.tot cut-off)
DILI in vitro assay prediction, Vorrink (2018) (PHH spheroids): +VE (key: +VE: IC20 < 20 × Cmax.tot cut-off)
RMPCC's (RMPCC's): +VE
detection at 10 × Cmax.tot cut-off (PHH 3D spheroids): only detected by one of three donors
DILI +VE (5-8), DILI -VE (-4) ([4]; in vivo): +VE
DILI severity category (Chen et al. [2016]) ([4]; in vivo): Most
AC50 (HepaRG spheroids; read-out: ATP endpoint AC50): 78 µM
minimal effective concentration (HepaRG spheroids; read-out: ATP endpoint MEC): 38.2 µM
AC50 (HepaRG spheroids; read-out: HCS endpoint AC50): 98.6 µM
minimal effective concentration (HepaRG spheroids; read-out: HCS endpoint MEC): 42.9 µM
DILI prediction HepaRG spheroids (HCS-MEC) (HepaRG spheroids): +VE (MEC < 25 × Cmax.tot cut-off)
DILI in vitro assay prediction, Xu (2008) (human hepatocytes): +VE
THLE-Null [15]: +VE
Cytotoxicity HepG2 48 hrs (HepG2): +VE
AC50 (hLiMTs [5]; read-out: ATP endpoint AC50): 62.1 µM
minimal effective concentration (hLiMTs [5]; read-out: ATP endpoint MEC): 17.2 µM
AC50 (hLiMTs [5]; read-out: HCS endpoint AC50): 293 µM
minimal effective concentration (hLiMTs [5]; read-out: HCS endpoint MEC): 45 µM
DILI prediction hLiMTs (HCS-MEC) (hLiMTs [5]): +VE (MEC < 25 × Cmax.tot cut-off)
DILI Score (FDA) (1-8) [16]: 7
fu [6]: 0.010
Assigned DILI category ([7]; in vivo): 3
In vivo DILI ([7]; in vivo): +VE
Ro2 Hybrid HRM Score [8]: +VE
HMPCC's (hu-MPCC): +VE
PHH/100uM, Proctor (2017) (PHH [17]; 2D PHH, ATP, IC50 threshold 100 µM, ref Proctor et al. 2017): -VE
PHH ATP <100uM (PHH [17]; [21]): -VE
Structural based (HCI) (HepG2 cells [18]; In vitro Assay, ref Tolosa 2012): +VE
DILI in vitro assay prediction, Tolosa (2012) (HepG2 cells [18]): +VE
hLiMTs ATP <100uM (hLiMTs [9]; [21]): +VE (IC50 threshold of 100 µM)
hLiMTs/100uM, Proctor (2017) (hLiMTs [9]; hLiMTs, ATP, IC50 threshold 100 µM, ref Proctor et al. 2017): +VE (IC50 threshold of 100 µM)
DILI in vitro assay prediction, Schadt (2015) [10]: +VE
Cellular toxicity (3T3 cells) [10, 22]: -VE
Combined Assay [10, 22]: +VE
GSH adduct HML [10, 22]: +VE
Hepatocyte cellular toxicity [10, 22]: -VE
MitoTox 3T3 [10, 22]: -VE
TDI CYP3A4 [10, 22]: -VE
hBSEP inhibition [10, 22]: -VE
